Assay results from ChEMBL document CHEMBL4382216, “Asymmetric synthesis and biological evaluation of imidazole- and oxazole-containing synthetic lipoxin A4 mimetics (sLXms)” (Eur J Med Chem, 2019).

Legend:
Type in all cases: cell-based
[1] = target: T1, N-formyl peptide receptor 2 (Homo sapiens) (UniProt P25090); experiment: Agonist activity at ALX/FPR2 in human THP1 cells harboring NF-kB-Luc assessed as inhibition of LPS-induced NFkB signalling activation by measuring NF-kB activation level at 10^-9 M pretreated for 30 mins followed by LPS stimulation for 24 hrs by luciferase reporter gene assay; set-up: scale not given: the % may be the effect or the level left
T1 sequence (whole entry): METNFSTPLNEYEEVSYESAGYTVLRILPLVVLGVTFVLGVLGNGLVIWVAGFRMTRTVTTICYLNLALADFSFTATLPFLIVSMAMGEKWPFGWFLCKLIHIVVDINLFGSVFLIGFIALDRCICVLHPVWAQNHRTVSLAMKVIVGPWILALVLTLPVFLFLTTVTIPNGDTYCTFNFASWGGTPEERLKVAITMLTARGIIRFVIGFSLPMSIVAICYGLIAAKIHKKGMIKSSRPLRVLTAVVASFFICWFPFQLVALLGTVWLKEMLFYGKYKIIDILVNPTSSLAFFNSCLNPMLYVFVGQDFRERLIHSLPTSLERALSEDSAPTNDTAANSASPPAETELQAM

[2] = target: T1, N-formyl peptide receptor 2 (Homo sapiens); experiment: Agonist activity at ALX/FPR2 in human THP1 cells harboring NF-kB-Luc assessed as inhibition of LPS-induced NFkB signalling activation by measuring IFNgamma secretion at 10^-11 M pretreated for 30 mins followed by LPS stimulation for 24 hrs by electrochemiluminescence assay; set-up: scale not given: the % may be the effect or the level left
[3] = target: T1, N-formyl peptide receptor 2 (Homo sapiens); experiment: Agonist activity at ALX/FPR2 in human THP1 cells harboring NF-kB-Luc assessed as inhibition of LPS-induced NFkB signalling activation by measuring IL-12p70 secretion at 10^-9 M pretreated for 30 mins followed by LPS stimulation for 24 hrs by electrochemiluminescence assay; set-up: scale not given: the % may be the effect or the level left
[4] = target: T1, N-formyl peptide receptor 2 (Homo sapiens); experiment: Agonist activity at ALX/FPR2 in human THP1 cells harboring NF-kB-Luc assessed as inhibition of LPS-induced NFkB signalling activation by measuring IL-6 secretion at 10^-11 M pretreated for 30 mins followed by LPS stimulation for 24 hrs by electrochemiluminescence assay; set-up: scale not given: the % may be the effect or the level left
[5] = target: T1, N-formyl peptide receptor 2 (Homo sapiens); experiment: Agonist activity at ALX/FPR2 in human THP1 cells harboring NF-kB-Luc assessed as inhibition of LPS-induced NFkB signalling activation by measuring TNFalpha secretion at 10^-11 M pretreated for 30 mins followed by LPS stimulation for 24 hrs by electrochemiluminescence assay; set-up: scale not given: the % may be the effect or the level left
Homo sapiens = species on record: Homo sapiens; experiment: Activation of Luc-fused NFkB (unknown origin) expressed in non-stimulated human THP1 cells assessed as relative luminescence unit at 10^-9 M after 24 hrs by luciferase reporter gene assay (reference value: 100%)
[6] = target: T1, N-formyl peptide receptor 2 (Homo sapiens); experiment: Agonist activity at ALX/FPR2 in human THP1 cells harboring NF-kB-Luc assessed as inhibition of LPS-induced NFkB signalling activation by measuring IL-6 secretion at 10^-7 M pretreated for 30 mins followed by LPS stimulation for 24 hrs by electrochemiluminescence assay; set-up: scale not given: the % may be the effect or the level left
[7] = target: T1, N-formyl peptide receptor 2 (Homo sapiens); experiment: Agonist activity at ALX/FPR2 in human THP1 cells harboring NF-kB-Luc assessed as inhibition of LPS-induced NFkB signalling activation by measuring IL-12p70 secretion at 10^-7 M pretreated for 30 mins followed by LPS stimulation for 24 hrs by electrochemiluminescence assay; set-up: scale not given: the % may be the effect or the level left
[8] = target: T2, N-formyl peptide receptor 2 (Homo sapiens, UniProt P25090); experiment: Agonist activity at ALX/FPR2 in human THP1 cells harboring NF-kB-Luc assessed as inhibition of LPS-induced NFkB signalling activation by measuring reduction in IL-1beta secretion pretreated for 30 mins followed by LPS stimulation for 24 hrs by electrochemiluminescence assay; details: read-out: IC50
T2 sequence (P25090 whole entry): T1 sequence (whole entry)

[9] = target: T1, N-formyl peptide receptor 2 (Homo sapiens); experiment: Agonist activity at ALX/FPR2 in human THP1 cells harboring NF-kB-Luc assessed as inhibition of LPS-induced NFkB signalling activation by measuring NF-kB activation level at 10^-7 M pretreated for 30 mins followed by LPS stimulation for 24 hrs by luciferase reporter gene assay; set-up: scale not given: the % may be the effect or the level left
[10] = target: T1, N-formyl peptide receptor 2 (Homo sapiens); experiment: Agonist activity at ALX/FPR2 in human THP1 cells harboring NF-kB-Luc assessed as inhibition of LPS-induced NFkB signalling activation by measuring IL-1beta secretion at 10^-7 M pretreated for 30 mins followed by LPS stimulation for 24 hrs by electrochemiluminescence assay; set-up: scale not given: the % may be the effect or the level left
[11] = target: T1, N-formyl peptide receptor 2 (Homo sapiens); experiment: Agonist activity at ALX/FPR2 in human THP1 cells harboring NF-kB-Luc assessed as inhibition of LPS-induced NFkB signalling activation by measuring IL-1beta secretion at 10^-9 M pretreated for 30 mins followed by LPS stimulation for 24 hrs by electrochemiluminescence assay; set-up: scale not given: the % may be the effect or the level left
[12] = target: T1, N-formyl peptide receptor 2 (Homo sapiens); experiment: Agonist activity at ALX/FPR2 in human THP1 cells harboring NF-kB-Luc assessed as inhibition of LPS-induced NFkB signalling activation by measuring NF-kB activation level at 10^-12 M pretreated for 30 mins followed by LPS stimulation for 24 hrs by luciferase reporter gene assay; set-up: scale not given: the % may be the effect or the level left
[13] = target: T1, N-formyl peptide receptor 2 (Homo sapiens); experiment: Agonist activity at ALX/FPR2 in human THP1 cells harboring NF-kB-Luc assessed as inhibition of LPS-induced NFkB signalling activation by measuring NF-kB activation level at 10^-10 M pretreated for 30 mins followed by LPS stimulation for 24 hrs by luciferase reporter gene assay; set-up: scale not given: the % may be the effect or the level left
[14] = target: T2, N-formyl peptide receptor 2; experiment: Agonist activity at ALX/FPR2 in human THP1 cells harboring NF-kB-Luc assessed as inhibition of LPS-induced NFkB signalling activation pretreated for 30 mins followed by LPS stimulation for 24 hrs by luciferase reporter gene assay
[15] = Cytotoxicity against mouse J774.1 cells assessed as cell viability by MTS assay relative to control; details: read-out: Activity
[16] = target: T1, N-formyl peptide receptor 2 (Homo sapiens); experiment: Agonist activity at ALX/FPR2 in human THP1 cells harboring NF-kB-Luc assessed as inhibition of LPS-induced NFkB signalling activation by measuring TNFalpha secretion at 10^-7 M pretreated for 30 mins followed by LPS stimulation for 24 hrs by electrochemiluminescence assay; set-up: scale not given: the % may be the effect or the level left
[17] = target: T1, N-formyl peptide receptor 2 (Homo sapiens); experiment: Agonist activity at ALX/FPR2 in human THP1 cells harboring NF-kB-Luc assessed as inhibition of LPS-induced NFkB signalling activation by measuring TNFalpha secretion at 10^-9 M pretreated for 30 mins followed by LPS stimulation for 24 hrs by electrochemiluminescence assay; set-up: scale not given: the % may be the effect or the level left
[18] = target: T1, N-formyl peptide receptor 2 (Homo sapiens); experiment: Agonist activity at ALX/FPR2 in human THP1 cells harboring NF-kB-Luc assessed as inhibition of LPS-induced NFkB signalling activation by measuring IFNgamma secretion at 10^-7 M pretreated for 30 mins followed by LPS stimulation for 24 hrs by electrochemiluminescence assay; set-up: scale not given: the % may be the effect or the level left
[19] = target: T1, N-formyl peptide receptor 2 (Homo sapiens); experiment: Agonist activity at ALX/FPR2 in human THP1 cells harboring NF-kB-Luc assessed as inhibition of LPS-induced NFkB signalling activation by measuring NF-kB activation level at 10^-6 M pretreated for 30 mins followed by LPS stimulation for 24 hrs by luciferase reporter gene assay; set-up: scale not given: the % may be the effect or the level left
[20] = target: T1, N-formyl peptide receptor 2 (Homo sapiens); experiment: Agonist activity at ALX/FPR2 in human THP1 cells harboring NF-kB-Luc assessed as inhibition of LPS-induced NFkB signalling activation by measuring IL-6 secretion at 10^-9 M pretreated for 30 mins followed by LPS stimulation for 24 hrs by electrochemiluminescence assay; set-up: scale not given: the % may be the effect or the level left

Activity [1] [%]	Activity [2] [%]	Activity [3] [%]	Activity [4] [%]	Activity [5] [%]	Activity [6] [%]	Activity [7] [%]	IC50 [8] [nM]	Activity [9] [%]	Activity [10] [%]	Activity [11] [%]	Activity [12] [%]	Activity [13] [%]	IC50 [14] [nM]	Activity [16] [%]	Activity [17] [%]	Activity [18] [%]	Activity [19] [%]	Compound	Activity (Homo sapiens) [%]	viability [15] [%]	further results
84.2	30.3	37.1	2.6	19.6	1.7	29.6	1.8	76	5.7	4.3	95.3	85.6	26.3	29.5	16.9	32	93.3	CCCCC[C@H](O)/C=C/C=C\C=C\C=C\[C@@H](O)[C@@H](O)CCCC(=O)O [LIPOXIN A4]	1.5	95 to 100	Activity [20]: 1.1%
80.3	69.1	61.4	69	69.3	64.9	138	1	82.2	67.4	57.8	88.2	79.7	32.4	86.8	80.9	129	90.2	CCCCC[C@H](O)c1nc(-c2ccccc2)n(-c2ccccc2)c1/C=C/[C@@H](O)[C@@H](O)CCCC(=O)OC	1.6	95 to 100	Activity [20]: 77.3%
85.2	79.1	68.3	58.7	61.5	83.7	86.2	1.4	88.2	57.7	50.3	99.5	91.2	26.2	78.1	68.6	95	88.5	CCCCC[C@@H](O)c1nc(-c2ccccc2)n(-c2ccccc2)c1/C=C/[C@@H](O)[C@@H](O)CCCC(=O)OC	1.5	95 to 100	Activity [20]: 64.4%
